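Cultured in 96-well plates, cells were exposed to test compound for 48 hours across five concentrations. The concentration for full growth arrest is given as TGI.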
Key:
Assay in all cases: DTP human tumour cell line panel, 48 h
EKVX NSCLC = tested on: EKVX NSCLC
SK-MEL-2 melanoma = tested on: SK-MEL-2 melanoma
U251 CNS = tested on: U251 CNS
UACC-62 melanoma = tested on: UACC-62 melanoma
NCI-H522 lung = tested on: NCI-H522 lung
SF-539 CNS = tested on: SF-539 CNS
SNB-19 CNS = tested on: SNB-19 CNS
OVCAR-8 ovarian = tested on: OVCAR-8 ovarian
786-0 renal = tested on: 786-0 renal
SK-OV-3 ovarian = tested on: SK-OV-3 ovarian
NCI-H23 lung = tested on: NCI-H23 lung
OVCAR-4 ovarian = tested on: OVCAR-4 ovarian
HCT-116 colon = tested on: HCT-116 colon

SMILES	TGI (EKVX NSCLC) [µM]	TGI (SK-MEL-2 melanoma) [µM]	TGI (U251 CNS) [µM]	TGI (UACC-62 melanoma) [µM]	TGI (NCI-H522 lung) [µM]	TGI (SF-539 CNS) [µM]	TGI (SNB-19 CNS) [µM]	TGI (OVCAR-8 ovarian) [µM]	TGI (786-0 renal) [µM]	TGI (SK-OV-3 ovarian) [µM]	TGI (NCI-H23 lung) [µM]	TGI (OVCAR-4 ovarian) [µM]	TGI (HCT-116 colon) [µM]
O=c1[nH]c(=O)n(C2CC(O)C(CO)O2)cc1C#Cc1cc(F)cc(F)c1 (centres undefined)	> 100	> 100	> 100	> 100	> 100	> 100	> 100	> 100	> 100	> 100	> 100	> 100	–
CC1CCC23COC(=O)C2C(O)CCC3C1(C)CC(O)c1ccoc1 (centres undefined)	> 100	> 100	> 100	> 100	> 100	> 100	> 100	> 100	> 100	> 100	> 100	> 100	> 100
CCSc1nc2n(c(=S)n1)CCN2C	69.6	41.7	41.2	25.8	19.3	58.9	37.8	64.7	52	50.2	–	44.5	33.7
CC(=O)NC(CCCCNC(=O)N(C)N=O)C(=O)NCc1ccccc1 (centres undefined)	> 100	> 100	> 100	> 100	> 100	> 100	> 100	> 100	> 100	> 100	> 100	> 100	> 100
O=C(Nc1c(Cl)cc([N+](=O)[O-])cc1Cl)/C(=N\Nc1cccc(Cl)c1)c1c(O)c2ccccc2oc1=O	> 100	> 100	–	> 100	> 100	> 100	> 100	> 100	> 100	> 100	> 100	> 100	> 100
S=C(Nc1ccccc1)N1N=C2c3ccccc3CC[C@H]2[C@@H]1c1ccccc1	> 100	> 100	> 100	> 100	4.12	> 100	> 100	> 100	> 100	> 100	> 100	> 100	> 100
CSc1ccc2c(cc1=O)[C@@H](NC(=O)c1ccc(F)cc1)CCc1cc(O)c(O)c(O)c1-2	> 100	> 100	> 100	> 100	> 100	> 100	> 100	> 100	> 100	> 100	> 100	> 100	> 100
COc1ccc(C#CCC(OC2OC(CO)C(O)C(O)C2O)C(O)c2ccc(OC)c(OC)c2)cc1OC (centres undefined)	> 100	> 100	> 100	> 100	> 100	> 100	> 100	> 100	> 100	> 100	> 100	> 100	> 100
O=C1NN(c2ccccc2)C(=O)C2C3c4ccccc4C(c4ccccc43)C12 (centres undefined)	> 100	> 100	> 100	> 100	> 100	> 100	> 100	> 100	> 100	> 100	> 100	> 100	> 100
COC(=O)C(Cc1nc2ccccc2[nH]c1=O)C(=O)C(=O)Nc1ccc(OC)cc1[N+](=O)[O-] (centres undefined)	> 100	> 100	> 100	> 100	> 100	> 100	> 100	> 100	> 100	> 100	> 100	> 100	> 100
Nc1ccc(N)c2c1C(=O)c1c(N)ccc(N)c1C2=O	> 100	> 100	> 100	> 100	> 89.3	> 88.8	> 100	> 100	> 100	> 100	> 100	97.4	> 100
CC[C@]12C=CCN3CCC4(c5cc([C@@]6(C(=O)OC)CC7CN(CCc8c6[nH]c6ccccc86)C[C@@H]6CCC[C@H]76)c(OC)cc5N(C)C4[C@](O)(C(=O)OC)C1OC(C)=O)C32 (some centres undefined)	> 3.86	> 6.89	> 5.19	> 10	0.113	0.574	> 10	> 4.81	> 10	> 2.54	1.42	> 8.93	3.64
CCOP(C)(=O)C(Nc1ccc(F)cc1)c1ccc(F)cc1 (centres undefined)	> 100	> 100	> 100	> 100	> 100	> 100	> 100	> 100	> 100	> 100	> 100	> 100	> 100
OCSc1nn(CO)c(=S)s1	89.3	45.2	56.8	34.8	35.3	56.8	59.6	32.8	58.9	92.7	40.5	47	55.4

From PubChem BioAssay (NCI)
